Results reported in the supplement of paper PMC10307832.

Experiments:
Test in all cases: relative viability (nuclei count vs DMSO), 5 days (fraction); higher = more cells survive
Dovitinib + Phenformin = compound: CN1CCN(c2ccc3nc(-c4c(N)c5c(F)cccc5[nH]c4=O)[nH]c3c2)CC1 [Dovitinib] + N=C(N)NC(=N)NCCc1ccccc1 [Phenformin] (partner 250 µM)
Outline: (§1)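 Relative viability divides the nuclei count in treated wells by that in vehicle wells. Lung cancer cell lines were seeded in 1536-well plates, dosed by pin tool the next day, and fixed and stained after 5 days in one step with final 0.05% Triton X-100, 1% formaldehyde and 1 ug/ml Hoechst. Dosing was a single drug or a fixed anchor-drug dose plus five library-drug doses (not always all listed) in √10 steps, and values are medians of duplicate plates imaged at 4×.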

Dovitinib + Pictilisib = compound: CN1CCN(c2ccc3nc(-c4c(N)c5c(F)cccc5[nH]c4=O)[nH]c3c2)CC1 [Dovitinib] + CS(=O)(=O)N1CCN(Cc2cc3nc(-c4cccc5[nH]ncc45)nc(N4CCOCC4)c3s2)CC1 [Pictilisib] (partner 1 µM)
Outline: as §1

Dovitinib + Decitabine = compound: CN1CCN(c2ccc3nc(-c4c(N)c5c(F)cccc5[nH]c4=O)[nH]c3c2)CC1 [Dovitinib] + Nc1ncn([C@H]2C[C@H](O)[C@@H](CO)O2)c(=O)n1 [Decitabine] (partner 2 µM)
Outline: as §1

Dovitinib + Palbociclib = compound: CN1CCN(c2ccc3nc(-c4c(N)c5c(F)cccc5[nH]c4=O)[nH]c3c2)CC1 [Dovitinib] + CC(=O)c1c(C)c2cnc(Nc3ccc(N4CCNCC4)cn3)nc2n(C2CCCC2)c1=O [Palbociclib] (partner 0.5 µM)
Outline: as §1

| Cell Line | relative viability (Dovitinib + Phenformin; first compound 0.02 µM) | relative viability (Dovitinib + Phenformin; first compound 0.06325 µM) | relative viability (Dovitinib + Phenformin; first compound 0.2 µM) | relative viability (Dovitinib + Phenformin; first compound 0.6325 µM) | relative viability (Dovitinib + Phenformin; first compound 2 µM) | relative viability (Dovitinib + Pictilisib; first compound 0.02 µM) | relative viability (Dovitinib + Pictilisib; first compound 0.06325 µM) | relative viability (Dovitinib + Pictilisib; first compound 0.2 µM) | relative viability (Dovitinib + Pictilisib; first compound 0.6325 µM) | relative viability (Dovitinib + Pictilisib; first compound 2 µM) | relative viability (Dovitinib + Decitabine; first compound 0.02 µM) | relative viability (Dovitinib + Decitabine; first compound 0.06325 µM) | relative viability (Dovitinib + Decitabine; first compound 0.2 µM) | relative viability (Dovitinib + Decitabine; first compound 0.6325 µM) | relative viability (Dovitinib + Decitabine; first compound 2 µM) | relative viability (Dovitinib + Palbociclib; first compound 0.02 µM) | relative viability (Dovitinib + Palbociclib; first compound 0.06325 µM) | relative viability (Dovitinib + Palbociclib; first compound 0.2 µM) | relative viability (Dovitinib + Palbociclib; first compound 0.6325 µM) | relative viability (Dovitinib + Palbociclib; first compound 2 µM) |
| --- | --- | --- | --- | --- | --- | --- | --- | --- | --- | --- | --- | --- | --- | --- | --- | --- | --- | --- | --- | --- |
| SK-MES-1 | 0.662 | 0.7 | 0.69 | 0.634 | 0.667 | 0.354 | 0.359 | 0.349 | 0.36 | 0.327 | 0.358 | 0.404 | 0.381 | 0.414 | 0.348 | 0.35 | 0.378 | 0.306 | 0.37 | 0.374 |
| NCI-H1666 | 0.612 | 0.579 | 0.588 | 0.554 | 0.566 | 0.607 | 0.533 | 0.548 | 0.322 | 0.375 | 0.714 | 0.718 | 0.734 | 0.835 | 0.8 | 0.698 | 0.657 | 0.677 | 0.625 | 0.669 |
| NCI-H1355 | 0.428 | 0.428 | 0.477 | 0.433 | 0.529 | 0.459 | 0.305 | 0.478 | 0.479 | 0.48 | 0.363 | 0.351 | 0.371 | 0.336 | 0.371 | 0.416 | 0.41 | 0.465 | 0.397 | 0.415 |
| HCC-827 | 0.395 | 0.402 | 0.426 | 0.41 | 0.405 | 0.932 | 0.942 | 1.07 | 0.963 | 1.01 | 0.308 | 0.353 | 0.324 | 0.336 | 0.338 | 0.527 | 0.461 | 0.409 | 0.53 | 0.528 |
| HARA | 0.537 | 0.476 | 0.47 | 0.362 | 0.53 | 0.372 | 0.259 | 0.367 | 0.398 | 0.417 | 0.733 | 0.618 | 0.508 | 0.57 | 0.465 | 0.29 | 0.234 | 0.311 | 0.254 | 0.258 |
| HCC-366 | 0.628 | 0.6 | 0.636 | 0.57 | 0.641 | 0.172 | 0.123 | 0.159 | 0.137 | 0.186 | 0.341 | 0.363 | 0.362 | 0.317 | 0.378 | 0.377 | 0.364 | 0.372 | 0.396 | 0.402 |
| NCI-H322M | 0.685 | 0.737 | 0.811 | 0.751 | 0.815 | 0.501 | 0.446 | 0.464 | 0.542 | 0.674 | 0.667 | 0.692 | 0.746 | 0.737 | 0.705 | 0.46 | 0.471 | 0.468 | 0.482 | 0.487 |
| NCI-H2347 | 0.294 | 0.381 | 0.378 | 0.43 | 0.376 | 0.888 | 0.676 | 0.947 | 0.895 | 0.677 | 0.642 | 0.545 | 0.644 | 0.682 | 0.623 | 0.454 | 0.446 | 0.462 | 0.474 | 0.409 |
| NCI-H1975 | 0.427 | 0.415 | 0.411 | 0.409 | 0.423 | 0.299 | 0.271 | 0.325 | 0.324 | 0.274 | 0.372 | 0.409 | 0.4 | 0.424 | 0.382 | 0.657 | 0.674 | 0.58 | 0.645 | 0.598 |
| UMC-11 | 0.315 | 0.327 | 0.347 | 0.323 | 0.344 | 0.806 | 0.783 | 0.85 | 0.85 | 0.735 | 0.614 | 0.589 | 0.64 | 0.575 | 0.715 | 0.334 | 0.34 | 0.346 | 0.343 | 0.348 |
| ABC-1 | 0.211 | 0.317 | 0.243 | 0.237 | 0.204 | 0.697 | 0.664 | 0.826 | 0.872 | 0.78 | 1.08 | 0.991 | 1.03 | 0.891 | 1.14 | 0.513 | 0.797 | 0.833 | 0.627 | 0.725 |
| A-427 | 0.363 | 0.3 | 0.307 | 0.282 | 0.347 | 0.724 | 0.625 | 0.573 | 0.585 | 0.774 | 0.569 | 0.512 | 0.695 | 0.581 | 0.59 | 0.502 | 0.517 | 0.553 | 0.521 | 0.587 |
| LCLC-97TM1 | 0.354 | 0.412 | 0.431 | 0.43 | 0.428 | 0.361 | 0.135 | 0.215 | 0.205 | 0.207 | 0.188 | 0.118 | 0.203 | 0.217 | 0.206 | 0.252 | 0.26 | 0.236 | 0.185 | 0.209 |
| HCC-15 | 0.482 | 0.475 | 0.502 | 0.436 | 0.472 | 0.827 | 0.742 | 0.767 | 0.82 | 0.722 | 0.684 | 0.746 | 0.686 | 0.676 | 0.619 | 0.738 | 0.708 | 0.717 | 0.694 | 0.708 |
| NCI-H647 | 0.396 | 0.49 | 0.638 | 0.621 | 0.48 | 0.285 | 0.413 | 0.457 | 0.414 | 0.419 | 0.402 | 0.438 | 0.444 | 0.303 | 0.387 | 0.337 | 0.427 | 0.378 | 0.402 | 0.431 |
| SW 1573 | 0.355 | 0.413 | 0.473 | 0.282 | 0.359 | 0.487 | 0.545 | 0.483 | 0.382 | 0.512 | 0.479 | 0.516 | 0.612 | 0.397 | 0.629 | 0.402 | 0.421 | 0.435 | 0.348 | 0.386 |
